The values that follow come from patent US9872861B2, “Methods of treatment using selective Bcl-2 inhibitors” (AbbVie Inc., priority 2010, dated 2018).

As usually defined, the EC50 is the concentration at which the effect is half-maximal.

One assay addresses Bcl-XL (Homo sapiens, UniProt Q07817). The assay is described as follows: TR FRET competitive binding affinity, Bcl-XL. The settings on record: read-out: Target Affinity TR FRET, Bcl-XL. On the procedure: (§1) A comparison of the binding affinity for each of the compounds was performed to determine target affinity, as measured by Time-Resolved Fluorescence Resonance Energy Transfer (TR FRET).
(Time-resolved FRET reads energy transfer from a long-lived donor to a nearby acceptor.)

Another assay relates to FL5.12-Bcl-2 cells. The assay is described as follows: Cellular efficacy in FL5.12 cells dependent on Bcl-2. As to conditions: Mus musculus, 3% FBS. Format: cell-based, murine.
The test system of a further assay is FL5.12-Bcl-XL cells. The assay is described as follows: Cellular efficacy in FL5.12 cells dependent on Bcl-XL. The settings on record: Mus musculus, 3% FBS. Format: cell-based, murine.
Another assay concerns RS4;11 cells. The experiment in a line: Cellular efficacy in Bcl-2 dependent tumor cell line RS4;11. Format: cell-based, human. The settings on record: Homo sapiens, RS4-11; 10% HS.
A further assay deals with H146 cells. The assay is described as follows: Cellular efficacy in Bcl-XL dependent tumor cell line H146. Format: cell-based. The settings on record: Homo sapiens, NCI-H146; 10% HS.
Assay [1] has as its system peripheral blood immune cells. The assay is described as follows: Peripheral blood lymphocytes in C57BL/6 mice, Cell Dyn hematology analyzer. The settings on record: for inhibition in vivo at 100 mg/kg: Mus musculus, Lymphocyte. Format: in vivo. On the procedure:
The effect of the Bcl-2 selective/Bcl-XL sparing compounds on peripheral blood immune cells was also evaluated in C57BL/6 mice. Mice were treated four days with individual compounds (100 mg/kg, orally every day) and cell numbers were measured with a Cell Dyn hematology analyzer.

The target in the next assay is Mcl-1 (Homo sapiens, UniProt Q07820). The experiment in a line: TR FRET competitive binding affinity, Mcl-1. The settings on record: read-out: Target Affinity TR FRET, Mcl-1. On the procedure: as §1
Mcl-1, sequence (Q07820 whole entry): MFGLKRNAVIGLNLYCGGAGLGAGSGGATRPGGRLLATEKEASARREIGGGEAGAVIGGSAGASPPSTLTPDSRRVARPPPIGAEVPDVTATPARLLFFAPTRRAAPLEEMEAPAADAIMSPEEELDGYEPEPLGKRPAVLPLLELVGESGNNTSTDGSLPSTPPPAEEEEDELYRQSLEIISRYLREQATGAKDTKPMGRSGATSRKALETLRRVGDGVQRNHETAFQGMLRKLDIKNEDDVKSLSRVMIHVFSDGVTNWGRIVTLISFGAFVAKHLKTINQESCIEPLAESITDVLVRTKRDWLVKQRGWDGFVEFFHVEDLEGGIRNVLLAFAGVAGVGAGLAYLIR
Another assay addresses Bcl-2 (Homo sapiens, UniProt P10415). The assay is described as follows: TR FRET competitive binding affinity, Bcl-2. As to conditions: read-out: Target Affinity TR FRET, Bcl-2. On the procedure:
as §1

The subject of assay [2] is spontaneous (NZB×NZW)F1 murine model of lupus. The assay is described as follows: Spontaneous (NZB×NZW)F1 murine model of lupus: proteinuria, survival, lymphopenia. The settings on record: Week 47, 100 mg/kg daily oral. Format: in vivo, (NZB×NZW)F1 mice. From the text:
(See Liu, K. and C. Mohan, What do mouse models teach us about human SLE? Clin Immunol, 2006. 119(2): p. 123-30) This model has been well-characterized with respect to the patho-physiological changes analogous to those of human SLE. […] Renal histopathological changes include severe glomerulonephritis, mesangial and peripheral proliferative changes, capillary membrane thickening, tubular atrophy, and infiltration of lymphocytes and monocytes/macrophages as in the majority of human SLE patients. These changes result in disruption of kidney function as evidenced by severe proteinuria (PU) greater than 300 mg/dL as measured by albumin sticks, followed by mortality as measured by survival. […] (See Gelfand, M. C. and A. D. Steinberg, Therapeutic studies in NZB-W mice. II. Relative efficacy of azathioprine, cyclophosphamide and methylprednisolone. Arthritis Rheum, 1972. 15(3): p. 247-52; and Ramos, M. A., et al., Modulation of autoantibody production by mycophenolate mofetil: effects on the development of SLE in (NZB×NZW)F1 mice. Nephrol Dial Transplant, 2003. 18(5): p. 878-83)
(NZB×NZW)F1 females were purchased from The Jackson Laboratory (Bar Harbor, Me., USA) and maintained in a conventional animal housing facility throughout the experiment. […] Proteinuria (PU) and survival were monitored weekly, followed by biweekly measurement of lymphocyte and platelet counts, and anti-ds DNA production. PK parameters were also measured throughout the study. Impact on IgG deposition and renal pathology were assessed at the conclusion of the study. Severe PU was defined by two consecutive weekly measurements of PU 300 mg/dl using Albustix test strips (VWR). When mice became moribund, they were sacrificed according to Institutional Animal Care and Use Committee protocols. PU and survival data were presented as Kaplan-Meyer survival curves using Graphpad Prism software and group differences were considered significant at the level of p<0.05. Histologic scores were analyzed using ANOVA analysis. Anti-ds DNA were analyzed using one-way ANOVA analysis and Tukey post-test.

For assay [3], the system named is IFNα-induced (NZB×NZW)F1 lupus model. The assay is described as follows: IFNα-induced (NZB×NZW)F1 lupus model: proteinuria, survival, lymphopenia. Format: in vivo, (NZB×NZW)F1 mice. The settings on record: 100 mg/kg/day orally. On the procedure:
Treatment was initiated in a late-prophylactic mode (7 days after IFNα adenovirus). […] All treatment groups were administered treatment 7 days after adenovirus injection. Following adenovirus injection, mice were monitored weekly for proteinuria (PU) using Albustix test strips (VWR). Severe PU was defined by consecutive weekly measurements of PU≧300 mg/dl. When mice became moribund, they were sacrificed according to Institutional Animal Care and Use Committee protocols.

[4] abbreviates: 24 h, 1 oral dose of 100 mg/kg, read-out: Day 1 % Reduction vs. Vehicle.
The mark [5] stands for this setting: 96 h, 4 oral doses of 100 mg/kg, read-out: Day 4 % Reduction vs. Vehicle.

Like-named read-outs stand apart in the source and are kept apart here. Marks after values point to notes of the source that are not given here.

Bcl-XL, sequence (Q07817 whole entry): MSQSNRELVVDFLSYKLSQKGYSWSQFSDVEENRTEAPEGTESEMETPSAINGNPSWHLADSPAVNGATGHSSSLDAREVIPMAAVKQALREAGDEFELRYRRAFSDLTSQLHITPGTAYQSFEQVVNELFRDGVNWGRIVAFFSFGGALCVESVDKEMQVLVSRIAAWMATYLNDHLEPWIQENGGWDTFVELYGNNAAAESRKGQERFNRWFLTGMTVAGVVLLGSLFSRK
Bcl-2, sequence (P10415 whole entry): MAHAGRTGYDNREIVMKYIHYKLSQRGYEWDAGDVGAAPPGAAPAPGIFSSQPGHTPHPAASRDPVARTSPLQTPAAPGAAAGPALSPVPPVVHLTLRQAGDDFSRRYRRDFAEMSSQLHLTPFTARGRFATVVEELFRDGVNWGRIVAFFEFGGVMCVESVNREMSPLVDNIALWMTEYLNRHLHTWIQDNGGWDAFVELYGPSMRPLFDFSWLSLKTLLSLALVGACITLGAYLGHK

In the case of `CC1(C)CCC(CN2CCN(c3ccc(C(=O)NS(=O)(=O)c4ccc(N[C@H]5CC[C@H](N6CCOCC6)CC5)c([N+](=O)[O-])c4)c(Oc4cnc5[nH]ccc5c4)c3)CC2)=C(c2ccc(Cl)cc2)C1` [Compound 4, Trans-4-(4-{[2-(4-chlorophenyl)-4,4-dimethylcyclohex-1-en-1-yl]methyl}piperazin-1-yl)-N-({4-[(4-morpholin-4-ylcyclohexyl)amino]-3-nitrophenyl}sulfonyl)-2-(1H-pyrrolo[2,3-b]pyridin-5-yloxy)benzamide], the Ki at Bcl-XL was found to be 7.2 nM. Also, the EC50 with FL5.12-Bcl-2 cells is 1.2 nM; in the assay with FL5.12-Bcl-XL cells it was 70 nM; in the assay with RS4;11 cells it was 32 nM; in the assay on H146 cells it was over 5 µM. Also, the “Day 1 Lymphocytes” value in assay [1] (1 oral dose of 100 mg/kg) is recorded as 2.62 ×10^6. Besides, the “Day 4 lymphocytes” value in assay [1] (4 oral doses of 100 mg/kg) is on record as 1.72 ×10^6. For the same molecule, the results for the inhibition in vivo at 100 mg/kg in assay [1] (setting [4]) and in assay [1] (setting [5]) were 57% and 73%, respectively.

For `CC1(C)CCC(CN2CCN(c3ccc(C(=O)NS(=O)(=O)c4ccc(NC[C@H]5CN(C6CC6)CCO5)c([N+](=O)[O-])c4)c(Oc4cnc5[nH]ccc5c4)c3)CC2)=C(c2ccc(Cl)cc2)C1` [Compound 7, 4-(4-{[2-(4-chlorophenyl)-4,4-dimethylcyclohex-1-en-1-yl]methyl}piperazin-1-yl)-N-{[4-({[(2S)-4-cyclopropylmorpholin-2-yl]methyl}amino)-3-nitrophenyl]sulfonyl}-2-(1H-pyrrolo[2,3-b]pyridin-5-yloxy)benzamide], the Ki at Bcl-XL is 9.4 nM. The results for the concentration giving a half-maximal response (EC50) with RS4;11 cells and in the assay with H146 cells were 2.7 nM and 0.926 µM, respectively. Further, the “Day 1 Lymphocytes” value in assay [1] (1 oral dose of 100 mg/kg) is 0.89 ×10^6. Also, in assay [1] (4 oral doses of 100 mg/kg), the “Day 4 lymphocytes” value is 0.95 ×10^6. Besides, the inhibition in vivo at 100 mg/kg in assay [1] (setting [4]) and in assay [1] (setting [5]) was 85% each time.

As to `CN1CCN(Nc2ccc(S(=O)(=O)NC(=O)c3ccc(N4CCN(CC5=C(c6ccc(Cl)cc6)CC(C)(C)CC5)CC4)cc3Oc3cnc4[nH]ccc4c3)cc2[N+](=O)[O-])CC1` [Compound 10, 4-(4-{[2-(4-chlorophenyl)-4,4-dimethylcyclohex-1-en-1-yl]methyl}piperazin-1-yl)-N-({4-[(4-methylpiperazin-1-yl)amino]-3-nitrophenyl}sulfonyl)-2-(1H-pyrrolo[2,3-b]pyridin-5-yloxy)benzamide], the Ki on Bcl-XL was 21 nM; at Mcl-1 it was over 440 nM. Further, the EC50 in the assay with FL5.12-Bcl-2 cells turned out to be 12 nM; in the assay on FL5.12-Bcl-XL cells, 273 nM; in the assay with RS4;11 cells it was 31 nM; in the assay with H146 cells it was 2.9 µM. In addition, the “Day 1 Lymphocytes” value in assay [1] (1 oral dose of 100 mg/kg) was 2.25 ×10^6. For the same molecule, in [1] (4 oral doses of 100 mg/kg), the “Day 4 lymphocytes” value is recorded as 2.48 ×10^6. The inhibition in vivo at 100 mg/kg stood at 65% in [1] (setting [4]) and 71% in assay [1] (setting [5]).

Turning to `CC1(C)CCC(CN2CCN(c3ccc(C(=O)NS(=O)(=O)c4ccc(OCC5(F)CCN(C6COC6)CC5)c(Cl)c4)c(Oc4cnc5[nH]ccc5c4)c3)CC2)=C(c2ccc(Cl)cc2)C1` [Compound 11, N-[(3-chloro-4-{[4-fluoro-1-(oxetan-3-yl)piperidin-4-yl]methoxy}phenyl)sulfonyl]-4-(4-{[2-(4-chlorophenyl)-4,4-dimethylcyclohex-1-en-1-yl]methyl}piperazin-1-yl)-2-(1H-pyrrolo[2,3-b]pyridin-5-yloxy)benzamide], on Bcl-XL, the Ki came out at 12 nM. For the same molecule, the concentration giving a half-maximal response (EC50) with RS4;11 cells was 12 nM; in the assay with H146 cells, 2.99 µM. Moreover, the “Day 1 Lymphocytes” value in [1] (1 oral dose of 100 mg/kg) is listed as 1.76 ×10^6. The “Day 4 lymphocytes” value in assay [1] (4 oral doses of 100 mg/kg) is recorded as 1.71 ×10^6. For the same molecule, the inhibition in vivo at 100 mg/kg in assay [1] (setting [4]) came to 73%; in assay [1] (setting [5]), 80%.

Take `CC1(C)CCC(CN2CCN(c3ccc(C(=O)NS(=O)(=O)c4cnc(OC[C@H]5CC[C@H](O)CC5)c(Cl)c4)c(Oc4cc(F)cc5[nH]ncc45)c3)CC2)=C(c2ccc(Cl)cc2)C1` [Compound 14, N-({5-chloro-6-[(trans-4-hydroxycyclohexyl)methoxy]pyridin-3-yl}sulfonyl)-4-(4-{[2-(4-chlorophenyl)-4,4-dimethylcyclohex-1-en-1-yl]methyl}piperazin-1-yl)-2-[(6-fluoro-1H-indazol-4-yl)oxy]benzamide]: the Ki on Bcl-2 is under 0.01 nM; at Bcl-XL, 20 nM. In addition, the EC50 in the assay with RS4;11 cells turned out to be 22 nM; in the assay on H146 cells, 3.54 µM. In addition, the “Day 1 Lymphocytes” value in assay [1] (1 oral dose of 100 mg/kg) was 3.02 ×10^6. For the same molecule, the “Day 4 lymphocytes” value in assay [1] (4 oral doses of 100 mg/kg) is 2.33 ×10^6. For the same molecule, the inhibition in vivo at 100 mg/kg was 54% in assay [1] (setting [4]) and 73% in assay [1] (setting [5]).

As to `CC1(C)CCC(CN2CCN(c3ccc(C(=O)NS(=O)(=O)c4ccc(OCC5(F)CCOCC5)c(Cl)c4)c(Oc4cnc5[nH]ccc5c4)c3)CC2)=C(c2ccc(Cl)cc2)C1` [Compound 15, N-({3-chloro-4-[(4-fluorotetrahydro-2H-pyran-4-yl)methoxy]phenyl}sulfonyl)-4-(4-{[2-(4-chlorophenyl)-4,4-dimethylcyclohex-1-en-1-yl]methyl}piperazin-1-yl)-2-(1H-pyrrolo[2,3-b]pyridin-5-yloxy)benzamide], the Ki at Bcl-XL worked out at 61 nM. For the same molecule, the EC50 with RS4;11 cells was 35 nM; with H146 cells, over 5 µM. The “Day 1 Lymphocytes” value in assay [1] (1 oral dose of 100 mg/kg) was 1.85 ×10^6. In addition, the “Day 4 lymphocytes” value in assay [1] (4 oral doses of 100 mg/kg) is 1.65 ×10^6. In addition, the values for the inhibition in vivo at 100 mg/kg in assay [1] (setting [4]) and in assay [1] (setting [5]) were 72% and 81%, respectively.

`CC1(C)CCC(CN2CCN(c3ccc(C(=O)NS(=O)(=O)c4ccc(OCC5(F)CCOCC5)c([N+](=O)[O-])c4)c(Oc4cnc5[nH]ccc5c4)c3)CC2)=C(c2ccc(Cl)cc2)C1` [Compound 16, 4-(4-{[2-(4-chlorophenyl)-4,4-dimethylcyclohex-1-en-1-yl]methyl}piperazin-1-yl)-N-({4-[(4-fluorotetrahydro-2H-pyran-4-yl)methoxy]-3-nitrophenyl}sulfonyl)-2-(1H-pyrrolo[2,3-b]pyridin-5-yloxy)benzamide]: the Ki on Bcl-XL worked out at 15 nM. In addition, the 50% effective concentration (EC50) with FL5.12-Bcl-2 cells came out at 0.7 nM; in the assay with FL5.12-Bcl-XL cells, 31 nM; in the assay with RS4;11 cells it was 2.1 nM; in the assay on H146 cells, 3.93 µM. For the same molecule, the “Day 1 Lymphocytes” value in [1] (1 oral dose of 100 mg/kg) is listed as 1.77 ×10^6. The “Day 4 lymphocytes” value in assay [1] (4 oral doses of 100 mg/kg) is 1.99 ×10^6. The inhibition in vivo at 100 mg/kg in [1] (setting [4]) was 73%; in assay [1] (setting [5]), 77%.

For the molecule `COc1c(C)c2c(c(O)c1C/C=C(\C)CCC(=O)OCCN1CCOCC1)C(=O)OC2` [MMF, mycophenolate mofetil, reference compound], the “% Mice with PU < 300 mg/dL” value in assay [2] is 94* %; in assay [3] it was 40* %. Moreover, the “% Survival” value is 100* % in assay [2] and 72* % in [3].
